In US12679848B2, “Plasma kallikrein inhibitors” (Merck Sharp & Dohme LLC, priority 2020, dated 2026):

Tests used:
Human plasma kallikrein = molecular target: T1, Human plasma kallikrein (Homo sapiens, UniProt P03952); test: Plasma Kallikrein Assay; assay type: biochemical; details: purified Human plasma kallikrein 0.5 nM, substrate Acetyl-K-P-R-AFC, HEPES pH 7.4; read-out: PKal IC50
T1 construct: yields a heavy chain (371 amino acids) and a light chain (248 amino acids); The active site of plasma kallikrein is contained in the light chain; purchased Enzyme Research Laboratories
Experimental: (§1) The effectiveness of a compound of the present invention as an inhibitor of plasma kallikrein can be determined using a relevant purified serine protease, and an appropriate synthetic substrate. The rate of hydrolysis of the chromogenic or fluorogenic substrate by the relevant serine protease was measured both in the absence and presence of compounds of the present invention. Assays were conducted at rt or at 37° C. […] A decrease in the rate of fluorescence change in the presence of inhibitor is indicative of enzyme inhibition. Such methods are known to one skilled in the art. The results of this assay are expressed as the half-maximal inhibitory concentrations (IC50), or the inhibitory constant, Ki.
Plasma kallikrein determinations were made in 50 mM HEPES buffer at pH 7.4 containing 150 mM NaCl, 5 mM CaCl2), and 0.1% PEG 8000 (polyethylene glycol; Fisher Scientific). Determinations were made using purified Human plasma kallikrein at a final concentration of 0.5 nM (Enzyme Research Laboratories) and the synthetic substrate, Acetyl-K—P—R-AFC (Sigma #C6608) at a concentration of […].
Times required to achieve equilibration between enzyme and inhibitor were determined in control experiments. […] IC50 was determined by inflection point from a four parameter logistic curve fit. Ki was calculated using the Cheng Prusoff equation, Ki=IC50/[…](1+([S]/Km)).

human factor XIa = human factor XIa (Homo sapiens, UniProt P03951); test: Factor XIa Assay; assay type: biochemical; details: human factor XIa 0.04 nM, substrate GPR-AFC, 30 min pre-incubation, 25° C., pH 7.4; read-out: FXIa IC50
Experimental: as §1, with “Coagulation factor XIa” for “plasma kallikrein”
Compounds were pre-incubated for 30 min at 25° C. with human (0.04 nM) factor XIa in 50 mM HEPES buffer with 150 mM sodium chloride, 5 mM calcium chloride, 0.1% PEG 8000, pH 7.4. factor XIa enzymatic activity was determined by addition of the substrate glycine-proline-arginine-7-amido-4-trifluoromethylcoumarin (GPR-AFC) and measurement of the fluorescence at 400/505 nm after a 60 min incubation at 25° C. The % inhibition for each data point was calculated from the data and analyzed using the log (inhibitor) vs. response four parameters equation to determine the half-maximal inhibitory concentrations (IC50). The IC50 were converted to equilibrium inhibitory constants (Ki) using the Cheng-Prusoff equation.

Sequence of human factor XIa (P03951 388-625 limits assumed): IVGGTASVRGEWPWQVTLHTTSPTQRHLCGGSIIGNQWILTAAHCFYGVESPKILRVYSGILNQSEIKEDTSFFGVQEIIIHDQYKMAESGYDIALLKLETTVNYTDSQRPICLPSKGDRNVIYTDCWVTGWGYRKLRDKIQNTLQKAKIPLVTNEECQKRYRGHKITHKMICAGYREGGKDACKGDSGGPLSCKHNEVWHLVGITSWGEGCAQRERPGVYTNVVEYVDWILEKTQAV
Sequence of human factor XIa (P03951 19-387 partner limits assumed): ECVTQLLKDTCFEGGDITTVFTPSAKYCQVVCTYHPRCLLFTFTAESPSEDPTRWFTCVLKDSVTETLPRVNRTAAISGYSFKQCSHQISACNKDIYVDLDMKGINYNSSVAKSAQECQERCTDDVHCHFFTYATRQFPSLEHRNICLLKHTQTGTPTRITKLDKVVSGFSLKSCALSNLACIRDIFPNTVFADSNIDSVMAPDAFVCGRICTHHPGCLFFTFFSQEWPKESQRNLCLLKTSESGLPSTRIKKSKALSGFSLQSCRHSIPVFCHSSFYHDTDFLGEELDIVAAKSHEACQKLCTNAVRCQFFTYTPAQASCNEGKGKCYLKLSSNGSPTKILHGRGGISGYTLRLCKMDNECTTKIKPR
T1 sequence (P03952 391-638 limits assumed): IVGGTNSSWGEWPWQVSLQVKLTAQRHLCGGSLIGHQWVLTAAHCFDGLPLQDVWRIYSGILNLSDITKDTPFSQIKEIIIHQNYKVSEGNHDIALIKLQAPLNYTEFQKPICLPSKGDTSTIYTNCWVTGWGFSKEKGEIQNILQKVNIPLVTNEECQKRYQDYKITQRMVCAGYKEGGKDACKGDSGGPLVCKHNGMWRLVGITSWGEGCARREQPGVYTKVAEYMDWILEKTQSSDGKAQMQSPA
T1 sequence (P03952 20-390 partner limits assumed): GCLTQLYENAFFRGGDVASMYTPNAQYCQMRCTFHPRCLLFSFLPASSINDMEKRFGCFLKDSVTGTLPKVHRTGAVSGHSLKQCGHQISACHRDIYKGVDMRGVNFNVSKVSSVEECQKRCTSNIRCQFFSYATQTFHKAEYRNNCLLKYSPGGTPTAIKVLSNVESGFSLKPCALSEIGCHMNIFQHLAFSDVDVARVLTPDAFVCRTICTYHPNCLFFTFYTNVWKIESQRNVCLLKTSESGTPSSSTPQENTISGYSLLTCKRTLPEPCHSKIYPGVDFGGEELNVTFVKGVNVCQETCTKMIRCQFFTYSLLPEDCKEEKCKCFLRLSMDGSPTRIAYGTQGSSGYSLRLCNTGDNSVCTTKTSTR

Row | IC50 (Human plasma kallikrein) [nM] | IC50 (human factor XIa) [nM] | Compound
1 | 8 | 328 | CC(C)Cn1ncc(C(=O)N2CCC[C@@]3(C2)OC(=O)Nc2ccc(Cl)c(F)c23)c1N [Example 17, (R)-1'-(5-Amino-1-isobutyl-1H-pyrazole-4-carbonyl)-6-chloro-5-fluorospiro[benzo[d][1,3]oxazine-4,3'-piperidin]-2(1H)-one]
2 | 39.1 | 1650 | Nc1c(C(=O)N2CCC[C@@]3(C2)OC(=O)Nc2ccc(Cl)c(F)c23)cnn1C1CCOCC1 [Example 18, (R)-1'-(5-Amino-1-(tetrahydro-2H-pyran-4-y1)-1H-pyrazole-4-carbonyl)-6-chloro-5-fluorospiro[benzo[d][1,3]oxazine-4,3'-piperidin]-2(1H)-one]
3 | 28.9 | 2940 | Nc1c(C(=O)N2CCC[C@@]3(C2)OC(=O)Nc2ccc(Cl)c(F)c23)cnn1C12CC(C1)C2 [Example 19, (R)-1'-(5-Amino-1-(bicyclo[1.1.1]pentan-1-y1)-1H-pyrazole-4-carbonyl)-6-chloro-5-fluorospiro[benzo[d][1,3]oxazine-4,3'-piperidin]-2(1H)-one]
4 | 5.9 | 882 | Nc1c(C(=O)N2CCC[C@@]3(C2)OC(=O)Nc2ccc(Cl)c(F)c23)cnn1CCOCC(F)(F)F [Example 20, (R)-1'-(5-Amino-1-(2-(2,2,2-trifluoroethoxy)ethyl)-1H-pyrazole-4-carbonyl)-6-chloro-5-fluorospiro[benzo[d][1,3]oxazine-4,3'-piperidin]-2(1H)-one]
5 | 12.6 | 1100 | CC(C)OCCn1ncc(C(=O)N2CCC[C@@]3(C2)OC(=O)Nc2ccc(Cl)c(F)c23)c1N [Example 21, (R)-1'-(5-Amino-1-(2-isopropoxyethyl)-1H-pyrazole-4-carbonyl)-6-chloro-5-fluorospiro[benzo[d][1,3]oxazine-4,3'-piperidin]-2(1H)-one]
6 | 15.3 | 1120 | Nc1c(C(=O)N2CCC[C@@]3(C2)OC(=O)Nc2ccc(Cl)c(F)c23)cnn1C1CCCC1 [Example 22, (R)-1'-(5-Amino-1-cyclopenty1-1H-pyrazole-4-carbonyl)-6-chloro-5-fluorospiro[benzo[d][1,3]oxazine-4,3'-piperidin]-2(1H)-one]
7 | 13.5 | 2250 | CC(C)(C)n1ncc(C(=O)N2CCC[C@@]3(C2)OC(=O)Nc2ccc(Cl)c(F)c23)c1N [Example 23, (R)-1'-(5-Amino-1-(tert-butyl)-1H-pyrazole-4-carbonyl)-6-chloro-5-fluorospiro[benzo[d][1,3]oxazine-4,3'-piperidin]-2(1H)-one]
8 | 10.9 | 425 | COCCn1ncc(C(=O)N2CCC[C@@]3(C2)OC(=O)Nc2ccc(Cl)c(F)c23)c1N [Example 24, (R)-1'-(5-Amino-1-(2-methoxyethyl)-1H-pyrazole-4-carbonyl)-6-chloro-5-fluorospiro[benzo[d][1,3]oxazine-4,3'-piperidin]-2(1H)-one]
9 | 24.8 | 2000 | CCn1ncc(C(=O)N2CCC[C@@]3(C2)OC(=O)Nc2ccc(Cl)c(F)c23)c1N [Example 25, (R)-1'-(5-Amino-1-ethy1-1H-pyrazole-4-carbonyl)-6-chloro-5-fluorospiro[benzo[d][1,3]oxazine-4,3'-piperidin]-2(1H)-one]
10 | 8.3 | 352 | Nc1c(C(=O)N2CCC[C@@]3(C2)OC(=O)Nc2ccc(Cl)c(F)c23)cnn1CC1(C(F)(F)F)CC1 [Example 26, (R)-1'-(5-Amino-1-((1-(trifluoromethyl)cyclopropyl)methyl)-1H-pyrazole-4-carbonyl)-6-chloro-5-fluorospiro[benzo[d][1,3]oxazine-4,3'-piperidin]-2(1H)-one]
11 | 18.8 | 699 | Nc1c(C(=O)N2CCC[C@@]3(C2)OC(=O)Nc2ccc(Cl)c(F)c23)cnn1CCC(F)(F)F [Example 27, (R)-1'-(5-Amino-1-(3,3,3-trifluoropropyl)-1H-pyrazole-4-carbonyl)-6-chloro-5-fluorospiro[benzo[d][1,3]oxazine-4,3'-piperidin]-2(1H)-one]
12 | 2.9 | 112 | Nc1c(C(=O)N2CCC[C@@]3(C2)OC(=O)Nc2ccc(Cl)c(F)c23)cnn1C1(c2ccc(F)cc2)CC1 [Example 28, (R)-1'-(5-Amino-1-(1-(4-fluorophenyl)cyclopropyl)-1H-pyrazole-4-carbonyl)-6-chloro-5-fluorospiro[benzo[d][1,3]oxazine-4,3'-piperidin]-2(1H)-one]
13 | 7.9 | 705 | Nc1c(C(=O)N2CCC[C@@]3(C2)OC(=O)Nc2ccc(Cl)c(F)c23)cnn1CC1(F)CC1 [Example 29, (R)-1'-(5-Amino-1-((1-fluorocyclopropyl)methyl)-1H-pyrazole-4-carbonyl)-6-chloro-5-fluorospiro[benzo[d][1,3]oxazine-4,3'-piperidin]-2(1H)-one]
14 | 18.4 | 2830 | Cn1c(-c2ccccc2)nnc1-n1ncc(C(=O)N2CCC[C@@]3(C2)OC(=O)Nc2ccc(Cl)c(F)c23)c1N [Example 30, (R)-1'-(5-Amino-1-(4-methyl-5-phenyl-4H-1,2,4-triazol-3-y1)-1H-pyrazole-4-carbonyl)-6-chloro-5-fluorospiro[benzo[d][1,3]oxazine-4,3'-piperidin]-2(1H)-one]
15 | 1.7 | 268 | Nc1c(C(=O)N2CCC[C@@]3(C2)OC(=O)Nc2ccc(Cl)c(F)c23)cnn1Cc1ccncc1 [Example 32, (R)-1'-(5-Amino-1-(pyridin-4-ylmethyl)-1H-pyrazole-4-carbonyl)-6-chloro-5-fluorospiro[benzo[d][1,3]oxazine-4,3'-piperidin]-2(1H)-one]
16 | 1 | 438 | Nc1c(C(=O)N2CCC[C@@]3(C2)OC(=O)Nc2ccc(Cl)c(F)c23)cnn1Cc1ccc(F)c(F)c1 [Example 33, (R)-1'-(5-Amino-1-(3,4-difluorobenzy1)-1H-pyrazole-4-carbonyl)-6-chloro-5-fluorospiro[benzo[d][1,3]oxazine-4,3'-piperidin]-2(1H)-one]
17 | 8.9 | 1200 | CC(C)n1ncc(C(=O)N2CCC[C@@]3(C2)OC(=O)Nc2ccc(Cl)c(F)c23)c1N [Example 34, (R)-1'-(5-Amino-1-isopropyl-1H-pyrazole-4-carbonyl)-6-chloro-5-fluorospiro[benzo[d][1,3]oxazine-4,3'-piperidin]-2(1H)-one]
18 | 15.7 | 1080 | Nc1c(C(=O)N2CCC[C@@]3(C2)OC(=O)Nc2ccc(Cl)c(F)c23)cnn1C1CCCCC1 [Example 35, (R)-1'-(5-Amino-1-cyclohexyl-1H-pyrazole-4-carbonyl)-6-chloro-5-fluorospiro[benzo[d][1,3]oxazine-4,3'-piperidin]-2(1H)-one]
19 | 2 | 140 | Nc1c(C(=O)N2CCC[C@@]3(C2)OC(=O)Nc2ccc(Cl)c(F)c23)cnn1CC1CCCCC1 [Example 36, (R)-1'-(5-Amino-1-(cyclohexylmethyl)-1H-pyrazole-4-carbonyl)-6-chloro-5-fluorospiro[benzo[d][1,3]oxazine-4,3'-piperidin]-2(1H)-one]
20 | 10.5 | 4600 | Nc1c(C(=O)N2CCC[C@@]3(C2)OC(=O)Nc2ccc(Cl)c(F)c23)cnn1CCOc1ccc(Cl)cc1 [Example 37, (R)-1'-(5-Amino-1-(2-(4-chlorophenoxy)ethyl)-1H-pyrazole-4-carbonyl)-6-chloro-5-fluorospiro[benzo[d][1,3]oxazine-4,3'-piperidin]-2(1H)-one]
21 | 2.4 | 449 | Nc1c(C(=O)N2CCC[C@@]3(C2)OC(=O)Nc2ccc(Cl)c(F)c23)cnn1C1Cc2ccccc2C1 [Example 38, (R)-1'-(5-Amino-1-(2,3-dihydro-1H-inden-2-yl)-1H-pyrazole-4-carbonyl)-6-chloro-5-fluorospiro[benzo[d][1,3]oxazine-4,3'-piperidin]-2(1H)-one]
22 | 1.2 | 293 | COc1cccc(Cn2ncc(C(=O)N3CCC[C@@]4(C3)OC(=O)Nc3ccc(Cl)c(F)c34)c2N)c1 [Example 39, (R)-1'-(5-Amino-1-(3-methoxybenzyl)-1H-pyrazole-4-carbonyl)-6-chloro-5-fluorospiro[benzo[d][1,3]oxazine-4,3'-piperidin]-2(1H)-one]
